We go through three compounds from PMC3645702, “Protein Tyrosine Nitration and Thiol Oxidation by Peroxynitrite—Strategies to Prevent These Oxidative Modifications” (International Journal of Molecular Sciences, 2013).

Assay [1] addresses T1, alcohol dehydrogenase (ADH) (Saccharomyces cerevisiae, UniProt P00330).
T1 construct: gene ADH1
T1 sequence (P00330 2-348): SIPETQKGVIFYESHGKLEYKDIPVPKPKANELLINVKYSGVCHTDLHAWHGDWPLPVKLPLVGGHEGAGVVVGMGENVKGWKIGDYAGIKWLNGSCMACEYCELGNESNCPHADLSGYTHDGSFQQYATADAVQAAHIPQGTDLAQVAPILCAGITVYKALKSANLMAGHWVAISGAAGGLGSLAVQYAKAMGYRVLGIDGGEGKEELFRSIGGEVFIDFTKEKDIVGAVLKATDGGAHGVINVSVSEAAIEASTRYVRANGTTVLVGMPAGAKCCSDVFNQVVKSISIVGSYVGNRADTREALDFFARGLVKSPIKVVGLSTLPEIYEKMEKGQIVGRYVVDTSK
The experiment in a line: NADH formation at […] nm. The format is biochemical.

Assay [2] concerns the target T2, human prostacyclin synthase (PGIS), microsomal, partially purified (Homo sapiens, UniProt Q16647).
T2 construct: gene PTGIS; overexpressed in Sf21 insect cells
T2 sequence (Q16647 1-500): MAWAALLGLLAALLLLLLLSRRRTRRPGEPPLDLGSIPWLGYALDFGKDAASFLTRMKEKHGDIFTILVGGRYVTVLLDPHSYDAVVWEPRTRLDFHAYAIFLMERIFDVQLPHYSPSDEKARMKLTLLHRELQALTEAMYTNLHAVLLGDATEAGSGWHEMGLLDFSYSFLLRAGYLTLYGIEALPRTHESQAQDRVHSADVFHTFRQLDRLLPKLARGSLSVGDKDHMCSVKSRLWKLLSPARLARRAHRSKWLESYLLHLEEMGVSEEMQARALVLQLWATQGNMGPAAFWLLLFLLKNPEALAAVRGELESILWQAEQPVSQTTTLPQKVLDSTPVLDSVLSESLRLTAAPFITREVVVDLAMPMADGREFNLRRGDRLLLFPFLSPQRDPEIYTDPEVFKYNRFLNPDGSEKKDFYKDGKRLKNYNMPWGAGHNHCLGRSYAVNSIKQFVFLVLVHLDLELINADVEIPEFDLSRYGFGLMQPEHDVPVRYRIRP
The experiment in a line: 3-nitrotyrosine formation, Western blot and HPLC after pronase. The format is biochemical. From the text:
3-nitrotyrosine formation, Western blot and HPLC after pronase on human prostacyclin synthase (PGIS), microsomal, partially purified | peroxynitrite-dependent nitration of an over-expressed and partially purified human prostacyclin synthase

As a reminder, the inhibition is the percentage by which the read-out fell short of the control. Lower therefore signals a weak effect. Compound `S=c1cc[nH]c(=S)[nH]1` [2,6-Dithiopyrimidine] showed an inhibition at 50 µM in assay [1] of 20%.

For orientation: EC50 means the concentration needed to bring the measured effect to its halfway point. As to `O=NOO` [peroxynitrite], the EC50 in assay [2] amounted to 5 µM.

With `S=c1[nH]c(=S)c2[nH]cnc2[nH]1` [2,6-Dithiopurine], the inhibition at 50 µM in assay [1] came out at 20%.
